# Target: H1047R PIK3CA enzyme (Homo sapiens, UniProt P42336, H1047R)
# Test: ADP-Glo Biochemical PIK3CA Kinase Assay
# H1047R PIK3CA enzyme, sequence (P42336 whole entry H1047R): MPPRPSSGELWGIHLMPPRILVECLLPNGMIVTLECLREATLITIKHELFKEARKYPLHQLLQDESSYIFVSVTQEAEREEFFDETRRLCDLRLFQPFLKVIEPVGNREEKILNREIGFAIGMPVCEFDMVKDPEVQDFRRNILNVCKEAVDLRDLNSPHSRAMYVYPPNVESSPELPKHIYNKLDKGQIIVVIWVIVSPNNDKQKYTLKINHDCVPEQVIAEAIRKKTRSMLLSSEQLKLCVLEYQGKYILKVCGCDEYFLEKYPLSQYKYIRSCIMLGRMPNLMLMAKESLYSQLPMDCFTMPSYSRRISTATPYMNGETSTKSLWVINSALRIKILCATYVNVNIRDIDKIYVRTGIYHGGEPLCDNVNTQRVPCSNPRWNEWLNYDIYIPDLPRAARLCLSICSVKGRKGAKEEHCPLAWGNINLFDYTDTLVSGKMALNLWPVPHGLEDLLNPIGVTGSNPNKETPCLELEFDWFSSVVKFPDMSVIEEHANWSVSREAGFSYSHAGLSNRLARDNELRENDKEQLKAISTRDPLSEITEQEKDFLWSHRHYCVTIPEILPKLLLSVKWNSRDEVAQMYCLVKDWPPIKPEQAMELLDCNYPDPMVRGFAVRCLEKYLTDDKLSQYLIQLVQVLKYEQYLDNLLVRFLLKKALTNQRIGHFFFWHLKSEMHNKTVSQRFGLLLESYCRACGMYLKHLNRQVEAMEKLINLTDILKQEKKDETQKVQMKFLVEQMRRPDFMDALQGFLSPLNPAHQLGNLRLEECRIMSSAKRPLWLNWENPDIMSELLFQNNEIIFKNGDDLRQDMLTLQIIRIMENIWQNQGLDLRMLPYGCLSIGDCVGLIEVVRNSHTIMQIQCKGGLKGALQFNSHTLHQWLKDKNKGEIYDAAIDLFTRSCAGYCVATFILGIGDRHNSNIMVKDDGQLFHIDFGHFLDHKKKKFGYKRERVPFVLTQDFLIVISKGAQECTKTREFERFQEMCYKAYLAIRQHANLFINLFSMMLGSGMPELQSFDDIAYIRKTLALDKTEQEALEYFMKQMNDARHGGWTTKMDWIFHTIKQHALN
# H1047R PIK3CA enzyme, sequence (P27986 whole entry partner): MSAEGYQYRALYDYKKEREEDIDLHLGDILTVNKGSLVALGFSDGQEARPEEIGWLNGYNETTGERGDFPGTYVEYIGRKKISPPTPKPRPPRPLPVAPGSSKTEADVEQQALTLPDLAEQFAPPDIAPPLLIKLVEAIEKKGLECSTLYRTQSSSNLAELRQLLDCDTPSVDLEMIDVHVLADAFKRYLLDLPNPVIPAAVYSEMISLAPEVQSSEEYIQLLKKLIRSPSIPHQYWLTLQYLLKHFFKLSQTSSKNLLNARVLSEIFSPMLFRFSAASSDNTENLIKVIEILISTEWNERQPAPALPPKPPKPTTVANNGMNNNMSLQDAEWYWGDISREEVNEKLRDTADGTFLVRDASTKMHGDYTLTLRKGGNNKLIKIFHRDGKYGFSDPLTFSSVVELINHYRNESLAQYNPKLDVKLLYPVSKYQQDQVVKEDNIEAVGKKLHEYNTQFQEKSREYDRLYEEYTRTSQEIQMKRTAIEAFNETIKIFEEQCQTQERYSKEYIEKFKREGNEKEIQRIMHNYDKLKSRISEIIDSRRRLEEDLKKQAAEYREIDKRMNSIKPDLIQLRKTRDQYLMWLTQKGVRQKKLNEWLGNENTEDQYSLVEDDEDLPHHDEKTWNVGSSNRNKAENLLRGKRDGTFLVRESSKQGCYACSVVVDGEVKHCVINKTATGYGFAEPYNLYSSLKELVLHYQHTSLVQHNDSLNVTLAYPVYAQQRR
row,SMILES,IC50 [nM]
1,NCc1ncc(NC(=O)c2cc(F)cc(C(F)(F)F)c2)c2c1C(=O)NC2c1cc(F)ccc1Cl (stereo not drawn) [Compound I-480],500 to 1000
2,O=C1NC(c2cc(F)ccc2Cl)c2c(NC(=O)N3CCCC(c4ccccc4)C3)cc(Br)cc21 (racemic) [Compound I-597],1000 to 10000
3,O=C(Nc1cc(C#CC2(O)COC2)cc2c1C(c1cc(F)ccc1Cl)NC2=O)c1cc(F)cc(C(F)(F)F)c1 (stereo not drawn) [Compound I-1154],≤ 100
4,O=C(Nc1cccc2c(=O)[nH]n(Cc3ccccc3)c12)c1csc2ccccc12 [Compound I-118],10000 to 100000
5,O=C(Nc1cc(Br)cc2c1[C@H](c1c(F)cccc1Cl)NC2=O)c1cc(F)cc(C(F)(F)F)c1 [Compound I-680],≤ 100
6,O=C(Nc1cc(O[C@@H]2COC[C@H]2O)cc2c1C(c1cc(F)ccc1Cl)NC2=O)c1cc(F)cc(C(F)(F)F)c1 (mixture of isomers) [Compound I-1192],≤ 100
7,O=C(Nc1cc(-c2ccc3ncnn3c2)cc2c1[C@@H](c1cc(F)ccc1Cl)NC2=O)c1cccc(C(F)(F)F)c1 (stereo in doubt) [Compound I-1116],10000 to 100000
8,Cn1cc(-c2cc(NC(=O)c3cc(F)cc(Cl)c3)c3c(n2)C(=O)NC3c2cc(F)ccc2Cl)cn1 (stereo not drawn) [Compound I-379],100 to 500
9,"Cc1ccccc1C1NC(=O)c2cc(C(C)C)cc(NC(=O)c3cc(F)cc(C(F)(F)F)c3)c21 (stereo not drawn) [Compound I-266, 3-Fluoro-N-[3-(2-methylphenyl)-6-(isopropyl)-1-oxo-2,3-dihydro-1H-isoindol-4-yl]-5-(trifluoromethyl)benzamide]",100 to 500
10,N#CC1(CNc2cc(NC(=O)c3cc(F)cc(C(F)(F)F)c3)c3c(c2)C(=O)NC3c2cc(F)ccc2Cl)CC1 (stereo not drawn) [Compound I-695],≤ 100
11,Cc1ccccc1[C@H]1NC(=O)c2nccc(NC(=O)N3CCc4ccccc43)c21 [Compound I-228],10000 to 100000
12,Cc1ccc(C(=O)Nc2cc(-c3ccc4ncnn4c3)cc3c2[C@H](c2cc(F)ccc2Cl)NC3=O)cc1C(F)(F)F (stereo in doubt) [Compound I-1167],≤ 100
13,O=C(Nc1cc(Br)cc2c1C(c1cc(F)ccc1Cl)NC2=O)c1cc(F)cc(C(F)F)c1 (stereo not drawn) [Compound I-835],100 to 500
14,N#Cc1cnn(-c2cc(NC(=O)c3cc(F)cc(C(F)(F)F)c3)c3c(c2)C(=O)NC3c2cc(F)ccc2Cl)c1 (stereo not drawn) [Compound I-1140],≤ 100
15,O=C(Nc1cc(CNC2COC2)cc2c1C(c1cc(F)ccc1Cl)NC2=O)c1cc(F)cc(C(F)(F)F)c1 (stereo not drawn) [Compound I-352],≤ 100
16,Cc1ccccc1C1NC(=O)c2cccc(NC(=O)c3n[nH]c4ccccc34)c21 (stereo not drawn) [Compound I-24],10000 to 100000
17,O=C(Nc1cc(-c2cccc3cccnc23)cc2c1C(c1cc(F)ccc1Cl)NC2=O)c1cc(F)cc(C(F)(F)F)c1 (stereo not drawn) [Compound I-1045],≤ 100
18,COc1cc(F)cc(C(=O)Nc2cc(Br)cc3c2C(c2cc(F)ccc2Cl)NC3=O)c1 (stereo not drawn) [Compound I-800],500 to 1000
19,O=C(Nc1cccc2c(=O)[nH]n(-c3cccc(Cl)c3)c12)c1cc(F)cc(C(F)(F)F)c1 [Compound I-950],1000 to 10000
20,N#Cc1cc(NC(=O)c2cc(F)cc(C(F)(F)F)c2)c2c(c1)C(=O)NC2c1cc(F)ccc1C(F)F (stereo not drawn) [Compound I-237],≤ 100
21,Cc1ccccc1C1NC(=O)c2cccc(NC(=O)c3cc(F)cc4cc[nH]c34)c21 (stereo not drawn) [Compound I-454],100 to 500

# Continued, values first:
row,IC50 [nM],SMILES
1,≤ 100,Nc1nc2ccc(-c3cc(NC(=O)c4cc(F)cc(C(F)(F)F)c4)c4c(c3)C(=O)N[C@@H]4c3cc(F)ccc3Cl)cn2n1 [Compound I-1444]
2,≤ 100,CN=S(C)(=O)Cc1cc(NC(=O)c2cc(F)cc(C(F)(F)F)c2)c2c(c1)C(=O)NC2c1cc(F)ccc1Cl (stereo not drawn) [Compound I-1434]
3,100 to 500,O=C(Nc1cc(OCC2CC2)cc2c1C(c1cc(F)ccc1Cl)NC2=O)c1cc(F)cc(C(F)(F)F)c1 (stereo not drawn) [Compound I-2134]
4,1000 to 10000,O=C1NC(CO)(c2cccc(F)c2)c2c1cccc2-c1nc2cc(C(F)(F)F)cc(F)c2[nH]1 (stereo not drawn) [Compound I-2296]
5,100 to 500,"CC(=O)N1CCC[C@H](Oc2cc(NC(=O)c3cc(F)cc(C(F)(F)F)c3)c3c(c2)C(=O)NC3c2cc(F)ccc2Cl)C1 (single isomer, unassigned) [Compound I-1525]"
6,1000 to 10000,N[C@]1(C(F)(F)F)CN(C(=O)Nc2cccc3c2[C@@H](c2cc(F)ccc2Cl)NC3=O)c2ccc(F)cc21 (racemic) [Compound I-2471]
7,1000 to 10000,O=C(Nc1cccc2c1[C@@H](CC1CCCCC1)NC2=O)c1cc(F)cc(C(F)(F)F)c1 [Compound I-2057]
8,1000 to 10000,COc1ccc2c(c1)N(C(=O)Nc1cccc3c1C(c1cc(F)ccc1Cl)NC3=O)CC2 (stereo not drawn) [Compound I-2439]
9,10000 to 100000,O=C(Nc1cc(Br)cc2c1C(c1cc(F)ccc1Cl)NC2=O)c1cc(F)cc(COC(F)F)c1 (stereo not drawn) [Compound I-1285]
10,10000 to 100000,O=C(CC1CC1)Nc1cc(-c2ccc3ncnn3c2)cc2c1C(c1cc(F)ccc1Cl)NC2=O (stereo not drawn) [Compound I-1781]
11,≤ 100,O=C(Nc1cc(-n2ccnn2)cc2c1C(c1cc(F)ccc1Cl)NC2=O)c1cc(F)cc(C(F)(F)F)c1 (stereo not drawn) [Compound I-2148]
12,1000 to 10000,O=C1NC(c2cc(F)ccc2Cl)c2c(NC(=O)c3noc4c3CCCC4)cccc21 (stereo not drawn) [Compound I-2238]
13,1000 to 10000,O=C1NC(c2cc(F)ccc2Cl)c2c(NC(=O)c3cc(F)cc4oc(=O)[nH]c34)cc(Br)cc21 (stereo not drawn) [Compound I-1319]
14,≤ 100,Nc1nnc2ccc(-c3cc(NC(=O)c4cc(F)cc(C(F)(F)F)c4)c4c(c3)C(=O)NC4c3cc(F)ccc3Cl)cn12 (stereo not drawn) [Compound I-1373]
15,100 to 500,O=C1NC(c2cc(F)ccc2Cl)c2c1cccc2-c1cc2c(Cl)cc(F)cc2[nH]1 (stereo not drawn) [Compound I-1317]
16,≤ 100,Cn1ccnc1C(C)(O)c1cc(NC(=O)c2cc(F)cc(C(F)(F)F)c2)c2c(c1)C(=O)NC2c1cc(F)ccc1Cl (stereo not drawn) [Compound I-1199]
17,100 to 500,NCC(O)c1cc(NC(=O)c2cc(F)cc(C(F)(F)F)c2)c2c(c1)C(=O)NC2c1cc(F)ccc1Cl (stereo not drawn) [Compound I-1290]
18,1000 to 10000,"O=C(Nc1cc(NC2=NC[C@@H](C(F)(F)F)O2)cc2c1[C@@H](c1cc(F)ccc1Cl)NC2=O)c1cc(F)cc(C(F)(F)F)c1 (single isomer, unassigned) [Compound I-2326]"
19,100 to 500,O=C(Cc1cc(-c2ccc3ncnn3c2)cc2c1C(c1cc(F)ccc1Cl)NC2=O)c1cc(F)cc(C(F)(F)F)c1 (stereo not drawn) [Compound I-1772]
20,1000 to 10000,O=C(Nc1cccc(C(F)(F)F)c1)c1cccc2c1C(c1cc(F)ccc1Cl)NC2=O (stereo not drawn) [Compound I-2189]
21,≤ 100,"CN1C(=O)CC[C@@H]1COc1cc(NC(=O)c2cc(F)cc(C(F)(F)F)c2)c2c(c1)C(=O)N[C@H]2c1cc(F)ccc1Cl (single isomer, unassigned) [Compound I-1567]"
22,1000 to 10000,O=C1NC(c2cc(F)ccc2Cl)c2c(NC(=O)C3CCC(C(F)(F)F)CC3)cc(Br)cc21 (stereo not drawn) [Compound I-1324]
23,500 to 1000,"N#Cc1cnn(Cc2cc(NC(=O)N3C[C@](O)(C(F)(F)F)c4cc(F)ccc43)c3c(c2)C(=O)N[C@H]3c2cc(F)ccc2Cl)c1 (single isomer, unassigned) [Compound I-2671]"
24,1000 to 10000,"O=C1N[C@H](c2cc(F)ccc2Cl)c2c(NC(=O)N3C[C@@](O)(C(F)(F)F)c4cc(F)ccc43)ccc(Cl)c21 (single isomer, unassigned) [Compound I-2620]"
